We go through one compound from patent US10718770B2, “Methods for screening compounds for treating or preventing a viral infection or a virus-related condition” (ABIVAX, priority 2015, dated 2020).

One data set relates to PBMCs. Put plainly: Lymphocyte populations in treated PBMCs. The class given is cell-based, human.
In data set [1] the test system is alternative splicing events of endogenous genes. The data set is described as follows: RT-PCR analysis of global alternative splicing events in PBMC samples. The data set is classed as cell-based, human. The source says: Quantification of non-viral RNA splicing is achieved using the protocols detailed in Klinck et al. (Multiple alternative splicing markers for ovarian cancer. Cancer Res. 68, 657-663 (2008)) and Venables et al. (Cancer-associated regulation of alternative splicing. Nat. Struct. Mol. Biol. 16, 670-676 (2009)).
These 382 alternative splicing events (ASEs) represent a high throughput random snapshot of global alterations of alternative splicing. High throughput PCR analysis of these (essentially random) 382 ASEs on multiple PBMC samples was performed, either from untreated (cells) or treated with DMSO, Compound 1 or with the control antiviral drug (Darunavir). Analysis of the data allowed further stringent quality controls; ASEs were only considered if >75% of the products ran at the expected mobilities (i.e. if the reactions were pure) and if total expected PCR concentration was higher than 20 nM (i.e. if the reactions were strong) which led to 264 remaining ASEs.

A short description of data set [2]: Lymphocyte populations in engrafted humanized mice treated for 30 days. The class given is in vivo. The following applies: one month, 20 mg/kg or 40 mg/kg, compared to controls without treatment. The method, then: FIG. 7. Efficacy of Compound 1 to inhibit viral replication in humanized mice. A) Reconstituted SCID mice were infected with JRCSF HIV-1 strain by intraperitoneal injection. Control group received by gavage labrafil and 5% DMSO (n=15) and treated group 20 mg/kg b.i.d of Compound 1 in labrafil and 5% DMSO (n=14) for 15 days. Two independent experiments were performed with 5 and 10 reconstituted mice for each group. Viral load was assessed by measuring viral RNA using the Amplicor HIV-1 Monitor from Roche. B) FACS analysis was performed on peritoneal wash at day 15 post-treatment to assess the CD8/CD4 ratio. C) Engrafted NSG humanized mice were treated by oral gavage with Compound 1 at either 20 mg or 40 mg/kg once a day for 30 days and indicated lymphocyte populations (CD45+; CD4+ and CD8+) were monitored by FACS analysis. […] Viral load was assessed by measuring viral RNA using the Amplicor HIV-1 Monitor from Roche. […]
Briefly, newborn (<5 days old) NSG mice received sub-lethal (1 Gy) total body irradiation with a Cs source, and then received […] transduced or untransduced CD34+ human HSCs using a 50 μl Hamilton syringe via the intrahepatic (i.h.) route. […] Mice were monitored three times a week for symptoms or signs of adverse events, according to a standard score sheet. […]

The next data set relates to HIV-1 strain YU2. The data set is described as follows: HIV-1 p24 production in infected monocyte derived-macrophages. The conditions noted are these: Human immunodeficiency virus 1, Primary macrophage, read-out: inhibition levels of virus replication (p24). The class given is cell-based. The source says:
FIG. 5. Potency of indole derivatives to inhibit HIV-1 production in PBMC- and macrophages-infected cells. A) HIV-1 strain Ada-MR5 was used to infect triplicate of activated PBMCs from different donors (stimulated for two days with PHA and IL2) in the absence or presence of increasing concentrations of Compound 1. Supernatant was harvested 6 days post-infection (pi) and viral capsid protein p24 antigen was quantitated using standard ELISA protocol. Each point represents 6 donors. B) HIV-1 strain YU2 was used to infect triplicate of monocyte derived-macrophages from different donors in the absence or presence of increasing concentrations of Compound 1. Supernatant was harvested 8 days pi and viral capsid protein p24 antigen was quantitated using standard ELISA protocol. Each point represents 8 donors.
To generate monocyte derived macrophages (MDMs), monocytes were isolated using CD14 microbeads (catalog no. 130-050-201; Miltenyi) and cultured in X-VIVO10 medium (Lonza) supplemented with GM-CSF 1000 U/ml and M-CSF 100 ng/ml for 6 days. Monocytes were seeded at a cell count of 50′000 cells per well in a 96 well plate. After 6 days medium was replaced with X-VIVO10 w/o Cytokines. […]
Cells were treated with 0.01 μM up to 30 μM and p24 antigen levels were monitored in culture supernatant over a 12 day period. […]

For `FC(F)(F)Oc1ccc(Nc2ccc3cccc(Cl)c3n2)cc1` [Compound 1, 8-chloro-N-(4-(trifluoromethoxy)phenyl)quinolin-2-amine], the “effect on the different populations of lymphocytes present in PBMCs” value in the data set on PBMCs is reported as “did not alter”. For the same compound, in data set [1], the “global effect on pre-mRNA splicing” value is “no global effect”. For the same compound, the “engraftment values of CD45+ cells and ratio of CD8+/CD4+” value in data set [2] is reported as “neither alters engraftment values of CD45+ cells nor the ratio of CD8+/CD4+”. Also, the inhibition (in general, the percentage by which the read-out fell short of the control) at 0.1 µM in the data set on HIV-1 strain YU2 was at most 90%.
